Relative viability data for nine cell lines are collected here from the supplement of paper PMC10307832.

Common to all, as to experiment: relative viability (nuclei count vs DMSO), 5 days (fraction); higher = more cells survive
Compound in assay [1]: C[C@@]1(C(=O)Nc2ccc(F)nc2)CCCN1c1nc(Nc2cc(C3CC3)n[nH]2)c2cccn2n1 + C[C@]1(O)C[C@@H](c2nc(-c3ccc4ccc(-c5ccccc5)nc4c3)c3c(N)nccn32)C1 [Linsitinib] (partner 1 µM)
The method, boiled down: (§1)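 Relative viability was taken as the ratio of nuclei in treated wells to nuclei in vehicle wells. Lung cancer cell lines in 1536-well plates received compounds by pin tool one day after seeding, either one drug alone or a fixed anchor-drug dose plus five library-drug doses (not always all listed) in √10 steps. Nuclei were counted on 4× images after 5 days of treatment, and values are medians of duplicate plates.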

Compound in the assay “Motesanib + Decitabine”: CC1(C)CNc2cc(NC(=O)c3cccnc3NCc3ccncc3)ccc21 [Motesanib] + Nc1ncn([C@H]2C[C@H](O)[C@@H](CO)O2)c(=O)n1 [Decitabine] (partner 2 µM)
Put shortly:
as §1

Compound in the assay “Motesanib + Luminespib”: CC1(C)CNc2cc(NC(=O)c3cccnc3NCc3ccncc3)ccc21 [Motesanib] + CCNC(=O)c1noc(-c2cc(C(C)C)c(O)cc2O)c1-c1ccc(CN2CCOCC2)cc1 [Luminespib] (partner 0.01 µM)
Put shortly: as §1

Compound in the assay “Motesanib + Phenformin”: CC1(C)CNc2cc(NC(=O)c3cccnc3NCc3ccncc3)ccc21 [Motesanib] + N=C(N)NC(=N)NCCc1ccccc1 [Phenformin] (partner 250 µM)
The method, boiled down: as §1

Regarding NCI-H1975, the relative viability was found to be 0.913 in assay [1] (first compound 0.04 µM); 0.922 in assay [1] (first compound 0.1265 µM); 0.933 in assay [1] (first compound 0.4 µM); 0.727 in assay [1] (first compound 1.265 µM); 0.364 with Motesanib + Decitabine (first compound 0.01 µM); 0.459 with Motesanib + Decitabine (first compound 0.03162 µM). Besides, the relative viability with Motesanib + Decitabine (first compound 0.1 µM) was determined as 0.406; with Motesanib + Decitabine (first compound 0.3162 µM) it was 0.487; with Motesanib + Decitabine (first compound 1 µM), 0.426; in the assay with Motesanib + Luminespib (first compound 0.01 µM) it was 0.275; with Motesanib + Luminespib (first compound 0.03162 µM), 0.203; with Motesanib + Luminespib (first compound 0.1 µM) it was 0.224. In addition, the relative viability in the assay with Motesanib + Luminespib (first compound 0.3162 µM) stood at 0.261; in the assay with Motesanib + Luminespib (first compound 1 µM) it was 0.361; in the assay with Motesanib + Phenformin (first compound 0.01 µM), 0.407; with Motesanib + Phenformin (first compound 0.03162 µM), 0.391; with Motesanib + Phenformin (first compound 0.1 µM), 0.393; in the assay with Motesanib + Phenformin (first compound 0.3162 µM), 0.409. The relative viability with Motesanib + Phenformin (first compound 1 µM) was found to be 0.441.
Regarding NCI-H1944, the relative viability in assay [1] (first compound 0.04 µM) worked out at 1.18; in assay [1] (first compound 0.1265 µM), 1.2; in assay [1] (first compound 0.4 µM) it was 1.1; in assay [1] (first compound 1.265 µM), 1.3; with Motesanib + Decitabine (first compound 0.01 µM) it was 0.477; in the assay with Motesanib + Decitabine (first compound 0.03162 µM), 0.444. The relative viability in the assay with Motesanib + Decitabine (first compound 0.1 µM) is 0.495; with Motesanib + Decitabine (first compound 0.3162 µM), 0.534; in the assay with Motesanib + Decitabine (first compound 1 µM), 0.508; in the assay with Motesanib + Luminespib (first compound 0.01 µM) it was 0.79; with Motesanib + Luminespib (first compound 0.03162 µM) it was 0.785; with Motesanib + Luminespib (first compound 0.1 µM), 0.749. Also, the relative viability with Motesanib + Luminespib (first compound 0.3162 µM) is 0.772; with Motesanib + Luminespib (first compound 1 µM) it was 0.78; with Motesanib + Phenformin (first compound 0.01 µM), 0.184; in the assay with Motesanib + Phenformin (first compound 0.03162 µM) it was 0.2; with Motesanib + Phenformin (first compound 0.1 µM), 0.221; with Motesanib + Phenformin (first compound 0.3162 µM), 0.246. The relative viability with Motesanib + Phenformin (first compound 1 µM) came to 0.254.
On to LU99A, for which the relative viability in assay [1] (first compound 0.04 µM) was determined as 0.544; in assay [1] (first compound 0.1265 µM), 0.497; in assay [1] (first compound 0.4 µM), 0.499; in assay [1] (first compound 1.265 µM), 0.467; in the assay with Motesanib + Decitabine (first compound 0.01 µM) it was 0.752; with Motesanib + Decitabine (first compound 0.03162 µM) it was 0.916. Further, the relative viability with Motesanib + Decitabine (first compound 0.1 µM) was 0.876; in the assay with Motesanib + Decitabine (first compound 0.3162 µM) it was 0.847; with Motesanib + Decitabine (first compound 1 µM) it was 1.01; in the assay with Motesanib + Luminespib (first compound 0.01 µM), 0.228; in the assay with Motesanib + Luminespib (first compound 0.03162 µM), 0.187; with Motesanib + Luminespib (first compound 0.1 µM), 0.336. Also, the relative viability with Motesanib + Luminespib (first compound 0.3162 µM) amounted to 0.243; with Motesanib + Luminespib (first compound 1 µM) it was 0.25; in the assay with Motesanib + Phenformin (first compound 0.01 µM), 0.737; with Motesanib + Phenformin (first compound 0.03162 µM), 0.886; in the assay with Motesanib + Phenformin (first compound 0.1 µM), 0.819; in the assay with Motesanib + Phenformin (first compound 0.3162 µM), 0.952. Moreover, the relative viability in the assay with Motesanib + Phenformin (first compound 1 µM) came out at 0.894.
In the case of SW 1573, the relative viability in assay [1] (first compound 0.04 µM) stood at 0.914; in assay [1] (first compound 0.1265 µM), 0.665; in assay [1] (first compound 0.4 µM), 0.656; in assay [1] (first compound 1.265 µM), 0.806; with Motesanib + Decitabine (first compound 0.01 µM) it was 0.532; with Motesanib + Decitabine (first compound 0.03162 µM), 0.511. In addition, the relative viability came out at 0.458 with Motesanib + Decitabine (first compound 0.1 µM); 0.586 in the assay with Motesanib + Decitabine (first compound 0.3162 µM); 0.553 in the assay with Motesanib + Decitabine (first compound 1 µM); 0.152 with Motesanib + Luminespib (first compound 0.01 µM); 0.266 with Motesanib + Luminespib (first compound 0.03162 µM); 0.207 with Motesanib + Luminespib (first compound 0.1 µM). In addition, the relative viability with Motesanib + Luminespib (first compound 0.3162 µM) was determined as 0.323; in the assay with Motesanib + Luminespib (first compound 1 µM) it was 0.335; with Motesanib + Phenformin (first compound 0.01 µM) it was 0.468; with Motesanib + Phenformin (first compound 0.03162 µM) it was 0.343; with Motesanib + Phenformin (first compound 0.1 µM), 0.388; with Motesanib + Phenformin (first compound 0.3162 µM), 0.36. Besides, the relative viability with Motesanib + Phenformin (first compound 1 µM) came to 0.421.
As for NCI-H2347, the relative viability in assay [1] (first compound 0.04 µM) amounted to 0.988; in assay [1] (first compound 0.1265 µM), 0.736; in assay [1] (first compound 0.4 µM), 0.915; in assay [1] (first compound 1.265 µM), 0.893; with Motesanib + Decitabine (first compound 0.01 µM) it was 0.667; in the assay with Motesanib + Decitabine (first compound 0.03162 µM), 0.578. Besides, the relative viability stood at 0.701 with Motesanib + Decitabine (first compound 0.1 µM); 0.642 in the assay with Motesanib + Decitabine (first compound 0.3162 µM); 0.674 with Motesanib + Decitabine (first compound 1 µM); 0.858 with Motesanib + Luminespib (first compound 0.01 µM); 0.254 with Motesanib + Luminespib (first compound 0.03162 µM); 0.5 in the assay with Motesanib + Luminespib (first compound 0.1 µM). Besides, the relative viability with Motesanib + Luminespib (first compound 0.3162 µM) was 0.48; in the assay with Motesanib + Luminespib (first compound 1 µM), 0.4; in the assay with Motesanib + Phenformin (first compound 0.01 µM), 0.419; in the assay with Motesanib + Phenformin (first compound 0.03162 µM) it was 0.45; with Motesanib + Phenformin (first compound 0.1 µM), 0.372; with Motesanib + Phenformin (first compound 0.3162 µM) it was 0.502. In addition, the relative viability with Motesanib + Phenformin (first compound 1 µM) came to 0.466.
For NCI-H2009, the relative viability in assay [1] (first compound 0.04 µM) is 1.2; in assay [1] (first compound 0.1265 µM), 1.2; in assay [1] (first compound 0.4 µM), 1.13; in assay [1] (first compound 1.265 µM), 1.19; in the assay with Motesanib + Decitabine (first compound 0.01 µM), 0.394; in the assay with Motesanib + Decitabine (first compound 0.03162 µM) it was 0.369. Besides, the relative viability amounted to 0.394 with Motesanib + Decitabine (first compound 0.1 µM); 0.38 with Motesanib + Decitabine (first compound 0.3162 µM); 0.463 in the assay with Motesanib + Decitabine (first compound 1 µM); 1.01 with Motesanib + Luminespib (first compound 0.01 µM); 1.04 in the assay with Motesanib + Luminespib (first compound 0.03162 µM); 0.945 with Motesanib + Luminespib (first compound 0.1 µM). Besides, the relative viability is 1.07 in the assay with Motesanib + Luminespib (first compound 0.3162 µM); 1.01 with Motesanib + Luminespib (first compound 1 µM); 0.491 in the assay with Motesanib + Phenformin (first compound 0.01 µM); 0.36 in the assay with Motesanib + Phenformin (first compound 0.03162 µM); 0.544 in the assay with Motesanib + Phenformin (first compound 0.1 µM); 0.481 with Motesanib + Phenformin (first compound 0.3162 µM). Also, the relative viability with Motesanib + Phenformin (first compound 1 µM) was 0.487.
Consider HCC-15, for which the relative viability in assay [1] (first compound 0.04 µM) was 0.902; in assay [1] (first compound 0.1265 µM) it was 0.885; in assay [1] (first compound 0.4 µM) it was 0.782; in assay [1] (first compound 1.265 µM) it was 0.981; with Motesanib + Decitabine (first compound 0.01 µM), 0.592; with Motesanib + Decitabine (first compound 0.03162 µM) it was 0.621. Further, the relative viability is 0.648 with Motesanib + Decitabine (first compound 0.1 µM); 0.81 with Motesanib + Decitabine (first compound 0.3162 µM); 0.69 with Motesanib + Decitabine (first compound 1 µM); 0.33 with Motesanib + Luminespib (first compound 0.01 µM); 0.38 with Motesanib + Luminespib (first compound 0.03162 µM); 0.314 in the assay with Motesanib + Luminespib (first compound 0.1 µM). For the same cell line, the relative viability with Motesanib + Luminespib (first compound 0.3162 µM) turned out to be 0.278; in the assay with Motesanib + Luminespib (first compound 1 µM) it was 0.545; with Motesanib + Phenformin (first compound 0.01 µM), 0.416; in the assay with Motesanib + Phenformin (first compound 0.03162 µM), 0.376; with Motesanib + Phenformin (first compound 0.1 µM) it was 0.497; with Motesanib + Phenformin (first compound 0.3162 µM) it was 0.527. Moreover, in the assay with Motesanib + Phenformin (first compound 1 µM), the relative viability turned out to be 0.503.
As for HCC-78, the relative viability came out at 0.541 in assay [1] (first compound 0.04 µM); 0.332 in assay [1] (first compound 0.1265 µM); 0.313 in assay [1] (first compound 0.4 µM); 0.259 in assay [1] (first compound 1.265 µM); 0.657 in the assay with Motesanib + Decitabine (first compound 0.01 µM); 0.654 with Motesanib + Decitabine (first compound 0.03162 µM). For the same cell line, the relative viability is 0.808 in the assay with Motesanib + Decitabine (first compound 0.1 µM); 0.817 with Motesanib + Decitabine (first compound 1 µM); 0.605 in the assay with Motesanib + Phenformin (first compound 0.01 µM); 0.73 with Motesanib + Phenformin (first compound 0.03162 µM); 0.715 in the assay with Motesanib + Phenformin (first compound 0.1 µM); 0.822 with Motesanib + Phenformin (first compound 0.3162 µM). In addition, in the assay with Motesanib + Phenformin (first compound 1 µM), the relative viability is 0.707.
NCI-H1299: the relative viability in assay [1] (first compound 0.04 µM) came out at 0.988; in assay [1] (first compound 0.1265 µM), 1.04; in assay [1] (first compound 0.4 µM) it was 1; in assay [1] (first compound 1.265 µM), 0.988.
